In patent US9212182B2, “Bicyclic sulfonamide compounds as sodium channel inhibitors” (AMGEN INC., priority 2013, dated 2015):
Read-outs that look alike come from different tables or passages of the source.

Target: Nav 1.7 (Homo sapiens (Human), UniProt Q15858)
Test: in-vitro Nav 1.7 PX (IC50)
Assay type: cell-based

Sequence of Nav 1.7 (Q15858 whole entry): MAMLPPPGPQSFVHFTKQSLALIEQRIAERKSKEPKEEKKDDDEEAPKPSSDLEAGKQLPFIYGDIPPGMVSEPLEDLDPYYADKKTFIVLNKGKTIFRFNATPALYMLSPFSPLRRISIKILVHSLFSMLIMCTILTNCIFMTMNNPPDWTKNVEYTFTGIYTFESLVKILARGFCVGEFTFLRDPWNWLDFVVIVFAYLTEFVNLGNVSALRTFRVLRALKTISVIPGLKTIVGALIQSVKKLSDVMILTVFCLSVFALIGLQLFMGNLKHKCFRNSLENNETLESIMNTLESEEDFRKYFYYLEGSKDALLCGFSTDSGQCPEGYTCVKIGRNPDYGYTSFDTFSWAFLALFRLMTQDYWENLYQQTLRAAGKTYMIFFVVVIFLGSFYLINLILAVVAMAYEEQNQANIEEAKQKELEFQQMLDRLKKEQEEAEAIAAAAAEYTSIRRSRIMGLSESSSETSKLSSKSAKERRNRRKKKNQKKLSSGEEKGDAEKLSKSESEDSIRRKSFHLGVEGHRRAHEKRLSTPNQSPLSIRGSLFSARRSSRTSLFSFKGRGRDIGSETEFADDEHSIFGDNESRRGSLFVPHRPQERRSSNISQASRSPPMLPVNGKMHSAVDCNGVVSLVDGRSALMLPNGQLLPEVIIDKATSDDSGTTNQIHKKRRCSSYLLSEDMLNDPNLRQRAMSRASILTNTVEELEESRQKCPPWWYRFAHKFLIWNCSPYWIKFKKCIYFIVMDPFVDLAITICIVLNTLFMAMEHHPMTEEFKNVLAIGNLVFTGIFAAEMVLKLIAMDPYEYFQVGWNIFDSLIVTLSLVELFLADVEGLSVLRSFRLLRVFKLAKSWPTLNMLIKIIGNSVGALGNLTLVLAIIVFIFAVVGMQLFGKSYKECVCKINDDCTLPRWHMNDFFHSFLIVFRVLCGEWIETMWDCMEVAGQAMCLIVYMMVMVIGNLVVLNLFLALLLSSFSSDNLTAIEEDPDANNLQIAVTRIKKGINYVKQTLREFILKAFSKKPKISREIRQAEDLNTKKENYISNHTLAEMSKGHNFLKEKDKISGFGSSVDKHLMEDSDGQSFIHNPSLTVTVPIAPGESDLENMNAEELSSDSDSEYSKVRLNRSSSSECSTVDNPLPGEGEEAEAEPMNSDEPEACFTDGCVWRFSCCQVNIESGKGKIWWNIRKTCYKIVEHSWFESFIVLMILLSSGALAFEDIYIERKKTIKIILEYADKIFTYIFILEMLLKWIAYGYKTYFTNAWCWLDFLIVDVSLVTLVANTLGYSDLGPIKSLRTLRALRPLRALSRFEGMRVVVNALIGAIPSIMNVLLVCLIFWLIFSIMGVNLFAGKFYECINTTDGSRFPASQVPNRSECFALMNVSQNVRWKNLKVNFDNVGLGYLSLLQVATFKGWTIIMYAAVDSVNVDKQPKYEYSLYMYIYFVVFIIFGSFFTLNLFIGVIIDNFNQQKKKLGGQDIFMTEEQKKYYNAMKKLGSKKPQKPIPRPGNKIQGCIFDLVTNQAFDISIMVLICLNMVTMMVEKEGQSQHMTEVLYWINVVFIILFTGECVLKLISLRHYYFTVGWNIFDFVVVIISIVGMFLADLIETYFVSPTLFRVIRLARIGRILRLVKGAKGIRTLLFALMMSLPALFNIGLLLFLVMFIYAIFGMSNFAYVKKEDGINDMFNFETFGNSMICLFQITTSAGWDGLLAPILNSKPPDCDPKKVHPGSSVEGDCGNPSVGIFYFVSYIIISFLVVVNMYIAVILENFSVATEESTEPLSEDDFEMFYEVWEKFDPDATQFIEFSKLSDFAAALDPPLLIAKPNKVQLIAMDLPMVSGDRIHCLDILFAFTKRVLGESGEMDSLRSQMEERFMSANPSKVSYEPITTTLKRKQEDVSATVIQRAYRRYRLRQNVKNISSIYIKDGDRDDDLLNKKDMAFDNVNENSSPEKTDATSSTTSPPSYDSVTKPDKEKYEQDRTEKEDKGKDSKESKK

Row | SMILES | IC50 (in-vitro Nav 1.7 PX data) [nM] | also measured
1 | COc1cc(-c2ccc(Cl)c(C)c2)c(C)cc1-n1c(=O)ccc2cc(S(=O)(=O)Nc3ccon3)ccc21 (atropisomer, axis not shown; (M)) [Example 422, (M)-1-(4′-chloro-5-methoxy-2,3′-dimethyl-4-biphenylyl)-N-3-isoxazolyl-2-oxo-1,2-dihydro-6-quinolinesulfonamide] | – | IC50: 6090 nM
2 | COc1cc(-c2ccc(F)c(F)c2)ccc1-n1c(=O)ccc2cc(S(=O)(=O)Nc3ncco3)ccc21 [Example 894, 1-(3′,4′-difluoro-3-methoxy-4-biphenylyl)-N-1,3-oxazol-2-yl-2-oxo-1,2-dihydro-6-quinolinesulfonamide] | 83 | –
3 | COc1cc(-c2cccc(C)c2OC)c(F)cc1-n1c(=O)ccc2cc(S(=O)(=O)Nc3ccon3)ccc21 [Example 792, 1-(2-fluoro-2′,5-dimethoxy-3′-methyl-4-biphenylyl)-N-3-isoxazolyl-2-oxo-1,2-dihydro-6-quinolinesulfonamide] | 38 | –
4 | COc1cc(-c2cccc3c2OCC3)ccc1-n1c(=O)ccc2cc(S(=O)(=O)Nc3ccon3)ccc21 [Example 789, 1-(4-(2,3-dihydro-1-benzofuran-7-yl)-2-methoxyphenyl)-N-3-isoxazolyl-2-oxo-1,2-dihydro-6-quinolinesulfonamide] | 89 | –
5 | COc1cc(-c2cccc(F)c2)ncc1-n1c(=O)ccc2cc(S(=O)(=O)Nc3ccon3)ccc21 [Example 601, 1-(6-(3-fluorophenyl)-4-methoxy-3-pyridinyl)-N-3-isoxazolyl-2-oxo-1,2-dihydro-6-quinolinesulfonamide] | 1770 | –
6 | COc1cc(-c2cccc(C(F)(F)F)c2)ccc1-n1c(=O)ccc2cc(S(=O)(=O)Nc3ncon3)ccc21 [Example 919, 1-(3-methoxy-3′-(trifluoromethyl)-4-biphenylyl)-N-1,2,4-oxadiazol-3-yl-2-oxo-1,2-dihydro-6-quinolinesulfonamide] | 22 | –
7 | COc1cc(-c2cncc(C(F)(F)F)c2)c(F)cc1-n1c(=O)ccc2cc(S(=O)(=O)Nc3ccon3)ccc21 [Example 721, 1-(5-fluoro-2-methoxy-4-(5-(trifluoromethyl)-3-pyridinyl)phenyl)-N-3-isoxazolyl-2-oxo-1,2-dihydro-6-quinolinesulfonamide] | 32 | –
8 | COc1cc(-c2cc(F)cc(Cl)c2)c(F)cc1-n1c(=O)ccc2cc(S(=O)(=O)Nc3ccc(F)cn3)ccc21 [Example 920, 1-(3′-chloro-2,5′-difluoro-5-methoxy-4-biphenylyl)-N-(5-fluoro-2-pyridinyl)-2-oxo-1,2-dihydro-6-quinolinesulfonamide] | 60 | –
9 | COc1cc(-c2ccc(F)c(Cl)c2)c(F)cc1-n1c(=O)ccc2cc(S(=O)(=O)Nc3ccon3)ccc21 (atropisomer, axis not shown; (M)) [Example 366, (M)-1-(3′-chloro-2,4′-difluoro-5-methoxy-4-biphenylyl)-N-3-isoxazolyl-2-oxo-1,2-dihydro-6-quinolinesulfonamide] | – | IC50 (in-vitro PatchXpress (PX)): 1260 nM
10 | COc1cc(-c2ccc(F)c(F)c2)c(F)cc1-n1c(=O)ccc2cc(S(=O)(=O)Nc3ncc(F)cn3)ccc21 [Example 937, N-(5-fluoro-2-pyrimidinyl)-2-oxo-1-(2,3′,4′-trifluoro-5-methoxy-4-biphenylyl)-1,2-dihydro-6-quinolinesulfonamide] | 29 | –
11 | COc1cc(-c2ccc(-n3c(=O)ccc4cc(S(=O)(=O)Nc5ccon5)ccc43)c(OC)c2)ccc1C (atropisomer, axis not shown; (P)) [Example 686, (P)-1-(3,3′-dimethoxy-4′-methyl-4-biphenylyl)-N-3-isoxazolyl-2-oxo-1,2-dihydro-6-quinolinesulfonamide] | 15 | –
12 | Cc1cc(-c2cccc(F)c2)c(F)cc1-n1c(=O)ccc2cc(S(=O)(=O)Nc3ccon3)ccc21 (atropisomer, axis not shown; (P)) [Example 390, (P)-1-(2,3′-difluoro-5-methyl-[1,1′-biphenyl]-4-yl)-N-(isoxazol-3-yl)-2-oxo-1,2-dihydroquinoline-6-sulfonamide] | – | IC50: 100 nM
13 | COc1cc(-c2cccc(C(F)(F)F)c2)ccc1-n1c(=O)ccc2cc(S(=O)(=O)Nc3ccncn3)ccc21 (atropisomer, axis not shown; (P)) [Example 671, (P)-1-(3-methoxy-3′-(trifluoromethyl)-4-biphenylyl)-2-oxo-N-4-pyrimidinyl-1,2-dihydro-6-quinolinesulfonamide] | 11 | –
14 | COc1cc(-c2ccc(F)c(F)c2)ccc1-n1c(=O)ccc2cc(S(=O)(=O)Nc3ncccn3)ccc21 [Example 897, 1-(3′,4′-difluoro-3-methoxy-4-biphenylyl)-2-oxo-N-2-pyrimidinyl-1,2-dihydro-6-quinolinesulfonamide] | 100 | –
15 | COc1cc(-c2ccc(C(F)(F)F)cc2)c(F)cc1-n1c(=O)ccc2cc(S(=O)(=O)Nc3ccnc(C)n3)ccc21 [Example 799, 1-(2-fluoro-5-methoxy-4′-(trifluoromethyl)-4-biphenylyl)-N-(2-methyl-4-pyrimidinyl)-2-oxo-1,2-dihydro-6-quinolinesulfonamide] | 59 | –
16 | COc1cc(-c2cccc(C(F)(F)F)c2)c(F)cc1-n1c(=O)ccc2cc(S(=O)(=O)Nc3ncc(F)cn3)ccc21 [Example 802, 1-(2-fluoro-5-methoxy-3′-(trifluoromethyl)-4-biphenylyl)-N-(5-fluoro-2-pyrimidinyl)-2-oxo-1,2-dihydro-6-quinolinesulfonamide] | 21 | –

Row | SMILES | IC50 (in-vitro Nav 1.7 PX data) [nM] | also measured
17 | COc1cc(-c2ccc(F)c(F)c2)c(F)cc1-n1c(=O)ccc2cc(S(=O)(=O)Nc3ccnc(C)n3)ccc21 [Example 939, N-(2-methyl-4-pyrimidinyl)-2-oxo-1-(2,3′,4′-trifluoro-5-methoxy-4-biphenylyl)-1,2-dihydro-6-quinolinesulfonamide] | 41 | –
18 | COc1cc(-c2cccnc2)c(F)cc1-n1c(=O)ccc2cc(S(=O)(=O)Nc3ccon3)ccc21 [Example 404, 1-(5-fluoro-2-methoxy-4-(3-pyridinyl)phenyl)-N-3-isoxazolyl-2-oxo-1,2-dihydro-6-quinolinesulfonamide] | – | IC50 (in-vitro PatchXpress (PX)): 4300 nM
19 | COc1ccc(-c2ccc(Cl)cc2)cc1-n1c(=O)ccc2cc(S(=O)(=O)Nc3ccon3)ccc21 [Example 857, 1-(4′-chloro-4-methoxy-3-biphenylyl)-N-3-isoxazolyl-2-oxo-1,2-dihydro-6-quinolinesulfonamide] | 20 | –
20 | COc1cc(Cl)cc(-c2ccc(-n3c(=O)ccc4cc(S(=O)(=O)Nc5ncc(F)cn5)ccc43)c(OC)c2)c1 [Example 927, 1-(3′-chloro-3,5′-dimethoxy-4-biphenylyl)-N-(5-fluoro-2-pyrimidinyl)-2-oxo-1,2-dihydro-6-quinolinesulfonamide] | 15 | –
21 | COc1cc(-c2cccc(C)c2)ccc1-n1c(=O)ccc2cc(S(=O)(=O)Nc3cccnn3)ccc21 [Example 1120, 1-(3-methoxy-3′-methyl-4-biphenylyl)-2-oxo-N-3-pyridazinyl-1,2-dihydro-6-quinolinesulfonamide] | 108 | –
22 | COc1ccc(-c2cc(OC)c(-n3c(=O)ccc4cc(S(=O)(=O)Nc5ccon5)ccc43)cc2F)c(F)c1 [Example 702, 1-(2,2′-difluoro-4′,5-dimethoxy-4-biphenylyl)-N-3-isoxazolyl-2-oxo-1,2-dihydro-6-quinolinesulfonamide] | 22 | –
23 | COc1cc(-c2cccc(C)c2F)c(F)cc1-n1c(=O)ccc2cc(S(=O)(=O)Nc3ccon3)ccc21 [Example 719, 1-(2,2′-difluoro-5-methoxy-3′-methyl-4-biphenylyl)-N-3-isoxazolyl-2-oxo-1,2-dihydro-6-quinolinesulfonamide] | 49 | –
24 | COc1cc(-c2ccc(Cl)cc2)c(F)cc1-n1c(=O)ccc2cc(S(=O)(=O)Nc3ccon3)ccc21 [634/675, 1-(4′-chloro-2-fluoro-5-methoxy-4-biphenylyl)-N-3-isoxazolyl-2-oxo-1,2-dihydro-6-quinolinesulfonamide] | 13 | –
25 | COc1cc(N2CC(F)(F)C2)c(F)cc1-n1c(=O)ccc2cc(S(=O)(=O)Nc3ccon3)ccc21 [Example 406, 1-(4-(3,3-difluoro-1-azetidinyl)-5-fluoro-2-methoxyphenyl)-N-3-isoxazolyl-2-oxo-1,2-dihydro-6-quinolinesulfonamide] | – | IC50 (in-vitro PatchXpress (PX)): 1000 nM
26 | COc1cc(-c2cc(C)cc(Cl)c2)c(F)cc1-n1c(=O)ccc2cc(S(=O)(=O)Nc3ccon3)ccc21 (atropisomer, axis not shown; (M)) [Example 507, (M)-1-(3′-chloro-2-fluoro-5-methoxy-5′-methyl-4-biphenylyl)-N-3-isoxazolyl-2-oxo-1,2-dihydro-6-quinolinesulfonamide] | – | IC50 (in-vitro PatchXpress (PX)): 1010 nM
27 | COc1cc(-c2cc(C)cc(C)c2)ccc1-n1c(=O)ccc2cc(S(=O)(=O)Nc3ccon3)ccc21 [Example 1016, N-3-isoxazolyl-1-(3-methoxy-3′,5′-dimethyl-4-biphenylyl)-2-oxo-1,2-dihydro-6-quinolinesulfonamide] | 11 | –
28 | COc1cc(-c2ccc(C#N)c(Cl)c2)c(F)cc1-n1c(=O)ccc2cc(S(=O)(=O)Nc3ccon3)ccc21 (atropisomer, axis not shown; (P)) [Example 520, (P)-1-(3′-chloro-4′-cyano-2-fluoro-5-methoxy-4-biphenylyl)-N-3-isoxazolyl-2-oxo-1,2-dihydro-6-quinolinesulfonamide] | – | IC50 (in-vitro PatchXpress (PX)): 26 nM
29 | COc1cc(-c2cc(Cl)cc(C#N)c2)c(F)cc1-n1c(=O)ccc2cc(S(=O)(=O)Nc3ccon3)ccc21 (atropisomer, axis not shown; (M)) [Example 519, (M)-1-(3′-chloro-5′-cyano-2-fluoro-5-methoxy-4-biphenylyl)-N-3-isoxazolyl-2-oxo-1,2-dihydro-6-quinolinesulfonamide] | – | IC50 (in-vitro PatchXpress (PX)): 16 nM
30 | COc1nc(-c2cc(F)cc(F)c2)c(Cl)cc1-n1c(=O)ccc2cc(S(=O)(=O)Nc3ccon3)ccc21 [Example 447, 1-(5-chloro-6-(3,5-difluorophenyl)-2-methoxypyridin-3-yl)-N-(isoxazol-3-yl)-2-oxo-1,2-dihydroquinoline-6-sulfonamide] | – | IC50 (in-vitro PatchXpress (PX)): 59 nM
31 | COc1ccc(-c2cccc(Cl)c2F)cc1-n1c(=O)ccc2cc(S(=O)(=O)Nc3ccon3)ccc21 [Example 887, 1-(3′-chloro-2′-fluoro-4-methoxy-3-biphenylyl)-N-3-isoxazolyl-2-oxo-1,2-dihydro-6-quinolinesulfonamide] | 30 | –
